Laboratory results from patent US8729055B2, “Ursolic acid derivative and pharmaceutical composition thereof” (Kaohsiung Medical University, priority 2010, dated 2014).

Legend:
[1] = test system: NTUB1 cells (human bladder cancer cell line); assay: MTT cytotoxicity assay against NTUB1 cells; type: cell-based
Method: In the present embodiment, cell culture and MTT assay is used for cell viability/proliferation. NTUB1, a human bladder cancer cell line, is established from a high-grade bladder cancer. […] The cells are cultured at 37° C. in a humidified atmosphere containing 5% CO2. […] Briefly, the cells are plated at a density of 1800 cells/well in 96-well plates and incubated at 37° C. overnight before drug exposure. Cells are then cultured in the presence of graded concentrations of the test compound with or without various concentrations of cisplatin (Pharmacia & Upjohn, Milan, Italy) at 37° C. for 72 h. At the end of the culture period, 50 μL of MTT (2 mg/mL in PBS) is added to each well and allowed to react for 3 h. Following centrifugation of plates at 1000 g for 10 min, media are removed and 150 μL DMSO are added to each well. The proportions of surviving cells are determined by absorbance spectrometry at 540 nm using […]) microplate reader. The cell viability is expressed as a percentage to the viable cells of control culture condition. The IC50s of each group are calculated by the […] analysis and presented as mean±standard deviation (SD). […] In Table 1, data are presented as mean±SD (n=5). […] The control cells are treated with culture medium containing 0.1% DMSO. Cisplatin is used as a positive control.

[2] = test system: rat peritoneal mast cells stimulated with compound 48/80; assay: Experiment C: release of β-glucuronidase from rat peritoneal mast cells stimulated with compound 48/80; type: cell-based; conditions: 30 μM; given when 50% inhibition not reached
Method: (§1) This example illustrates the anti-inflammatory activities of compounds 5, 7-11, 20 and 21. The anti-inflammatory activities of compounds 5, 7-11, 20 and 21 are studied in vitro for their inhibitory effects on chemical mediators released from neutrophils, mast cells or macrophages of rat.
(§2) Please refer to Table 2, which illustrates the inhibitory effects of compounds 5, 7-11, 20 and 21 on the accumulation of NO2^− (Experiment A), superoxide anion formation (n mol/10^6 cells/30 min) from rat neutrophils stimulated with PMA (Experiment B), and the release of β-glucuronidase from rat peritoneal mast cells stimulated with compound 48/80 (Experiment C). In Table 2, when 50% inhibition could not be reached at the highest concentration, the percentage of inhibition at 30 μM is given.
In the Experiment C, Heparinized Tyrode's solution is injected into the peritoneal cavity of exsanguinated rat (Sprague-Dawley, 250-300 g). After abdominal massage, cells in the peritoneal fluid are harvested and then separated in 38% bovine serum albumin (BSA) in glucose-free Tyrode's solution. […] Fifteen min after the addition of compound 48/80 ([…]), β-glucuronidase (phenolphthalein-β-glucuronide as substrate, 550 nm) in the supernatant is determined. The total content of β-glucuronidase is measured after treatment of the cell suspension with Triton X-100, and the percentage release is calculated. […]

accumulation of NO2− = assay: Experiment A: accumulation of NO2− (Griess reaction); type: cell-based, rat; conditions: inhibition of accumulation of NO2−
Method: as §1, §2
In the Experiment A, Nitric oxide (NO) in the cell medium is determined by the Griess reaction, and N-(3-aminomethyl)benzylamide (1400 W) is used as a positive control.

[3] = test system: microtubule assembly in NTUB1 cells; assay: Microtubule assembly by indirect immunofluorescence staining in NTUB1 cells; type: cell-based, human; conditions: 10 nM taxol, FIG. 5(B)
Method: All inhibition of tubulin polymerization has been implicated in G2/M phase cell cycle arrest in various cancer cell lines. Accordingly, whether treatment of cells with 20 μM compound 23 for 48 h affects in vivo microtubular architecture is investigated in the present example. Microtubule assembly is analyzed by indirect immunofluorescence staining using an anti-tubulin antibody (Santa Cruz Biotechnology, Santa Cruz, Calif., USA).
NTUB1 cells plated on coverslips are treated with no compound as control, 10 nM taxol, 50 μM compound 23 for 24 h. After treatment, cells are fixed with 2% formaldehyde/PBS for 20 min, washed with PBS, and cold methanol (−20° C.) for 3 min. After washing with PBS, cells are added anti-α-tubulin monoclonal antibody (Sigma, Co) in PBS and incubated for 3 h at room temperature. Then cells are washed with PBS and reincubated with Rodamine-conjugated secondary antibody (Sigma, Co) in dark room for 1 h at room temperature. After being washed with PBS, coverslips are mounted with 80% glycerol in PBS and examined with Axioskop 2 plus fluorescence microscope.
Please refer to FIGS. 5(A) to 5(C), which are diagrams showing the effects of taxol and compound 23 on microtubule assembly, wherein the cellular microtubules are observed by Axioskop 2 plus fluorescence microscope.

Row | SMILES | IC50 ([1]; NTUB1 cells, MTT, 72 h, mean±SD (n=5)) [µM] | % of viability at the highest concentration ([1]; NTUB1 cells, given when 50% inhibition not reached at the highest concentration (30 μM)) [%] | cytotoxic activity against NTUB1 cells, in words ([1]; comparison with the parent compound, from Table 1) | percentage of inhibition at 30 μM, C β-glucuronidase [2] [%] | IC50 (accumulation of NO2−) [µM] | effect on microtubule assembly [3]
1 | C=C(C)[C@@H]1CC[C@]2(C)[C@H](CC=C3[C@@H]4[C@@H](C)[C@H](C)CC[C@]4(C(=O)O)CC[C@]32C)[C@@]1(C)CCC(=O)OC [Compound 21, Methyl 3,4-seco-ursan-4(23), 12-dien-28-oic 3-oat] | > 30 | 62.77 | weakens cytotoxic activities | 29.3 ± 2.1 | 15.6 ± 2.5 | 
2 | CC(=O)O[C@H]1C(=O)[C@@]2(C)[C@H]([C@H](OC(=O)c3ccccc3)[C@]3(O)C[C@H](OC(=O)[C@H](O)[C@@H](NC(=O)c4ccccc4)c4ccccc4)C(C)=C1C3(C)C)[C@]1(OC(C)=O)CO[C@@H]1C[C@@H]2O [taxol] |  |  |  |  |  | distinctive microtubule bundle
